Assay results as given in US11608325B2, “Polycrystalline form of dehydrophenylahistin-like compound, and manufacturing and purification method and application thereof” (Shenzhen Huahong Marine Biomedicine Co., Ltd., priority 2016, dated 2023).
Entries after “also recorded” stand apart in the source; their conditions may differ.

Assays:
Format in all cases: physicochemical
[1] = Stability study of plinabulin polymorphs
[2] = High-temperature stress test (60° C.); details: for stability under high-temperature condition: stress testing, high temperature (60° C.); for Appearance / Content (HPLC) (calculated as an anhydride) / Relevant substance (HPLC) Impurity D / Relevant substance (HPLC) Total impurities / Relevant substance (HPLC) Impurity A: High-temperature test/60° C.; for Relevant substance (HPLC) Impurity A: LOQ (0.035%)
Protocol: (§1) In accordance with the general rule 9001 of guiding principles for stability tests of APIs and preparations in the Chinese Pharmacopoeia 2015 edition Volume IV, stress testing of the δ-crystalline form of (3Z,6Z)-3-benzylidene-6-[(5-tert-butyl-1H-imidazol-4-yl)deuteromethylene]piperazine-2,5-dione was conducted under high temperature, high humidity and illumination conditions, the sample batch number was 20150401, and the results are shown in Tables 7, 8 and 9 below.

[3] = Transformation of other crystalline forms under humidity or in water
[4] = Hygroscopicity test (Chinese Pharmacopoeia 2015 Volume IV, general rule 9103); details: for Weight gain: Left for 24 h
Protocol: The test was conducted according to the general rule 9103 of guiding principle for drug hygroscopicity test in Chinese Pharmacopoeia 2015 edition Volume IV, and the results are shown in Table 6.

[5] = High-humidity stress test (25° C., 90% RH); details: for stability / transformation under high-humidity condition: stress testing, high humidity (25° C., 90% RH); for Appearance / Content (HPLC) (calculated as an anhydride) / Relevant substance Impurity D / Relevant substance Total impurities / Relevant substance Impurity A: High-humidity test/25° C., 90% RH; for Relevant substance Impurity A: LOQ (0.035%)
Protocol: as §1

[6] = 6-month accelerated stability test (40° C.±2° C./75%±5% RH)
Protocol: Meanwhile, a 6-month accelerated stability test was conducted on the δ-crystalline form of (3Z,6Z)-3-benzylidene-6-[(5-tert-butyl-1H-imidazol-4-yl)deuteromethylene]piperazine-2,5-dione. The sample batch number was 20150404. Factory packaging was simulated. The test conditions were 40° C.±2° C./75%±5% RH.

[7] = Illumination stress test (4500 Lx±500 Lx); details: for Appearance / Content (HPLC) (calculated as an anhydride) / Relevant substance (HPLC) Impurity D / Relevant substance (HPLC) Total impurities / Relevant substance (HPLC) Impurity A: Illumination test/4500Lx ± 500Lx; for Relevant substance (HPLC) Impurity A: LOQ (0.035%); for stability under illumination condition: stress testing, illumination (4500 Lx±500 Lx), monohydrate
Protocol: as §1

[8] = after being stirred in water for 3 hours
[9] = listed as (3Z,6Z)-3-benzylidene-6-[(5-tert-butyl-1H-imidazol-4-yl)deuteromethylene]piperaz, monohydrate
[10] = listed as 20150401, monohydrate
[11] = listed as 20150402, monohydrate
[12] = listed as 20150403, monohydrate

SMILES: CC(C)(C)c1[nH]cnc1/C=c1\[nH]c(=O)/c(=C/c2ccccc2)[nH]c1=O [a-crystalline form, (3Z,6Z)-3-benzylidene-6-[(5-tert-butyl-1H-imidazol-4-yl)methylene]piperazine-2,5-dione]
- Hygroscopicity ([1]; plinabulin crystalline forms): certain hygroscopicity
- transformation of crystalline form ([1]; under high humidity condition): easily transformed into a d-crystalline form

SMILES: CC(C)O.[2H]/C(c1nc[nH]c1C(C)(C)C)=c1/[nH]c(=O)/c(=C/c2ccccc2)[nH]c1=O [ε-crystalline form, (3Z,6Z)-3-benzylidene-6-[(5-tert-butyl-1H-imidazol-4-yl)deuteromethylene]piperazine-2,5-dione monoisopropylate]
- stability under high-temperature condition [2]: not stable enough

SMILES: [2H]/C(c1nc[nH]c1C(C)(C)C)=c1/[nH]c(=O)/c(=C/c2ccccc2)[nH]c1=O [γ-crystalline form, (3Z,6Z)-3-benzylidene-6-[(5-tert-butyl-1H-imidazol-4-yl)deuteromethylene]piperazine-2,5-dione]
- stability under high-temperature condition [2]: not stable enough
- transformation of crystalline form [3, 8]: most of which may transform into δ-crystalline form
- Hygroscopicity [4]: no hygroscopicity

SMILES: CC(C)(C)c1[nH]cnc1/C=c1\[nH]c(=O)/c(=C/c2ccccc2)[nH]c1=O.O [d-crystalline form, (3Z,6Z)-3-benzylidene-6-[(5-tert-butyl-1H-imidazol-4-yl)methylene]piperazine-2,5-dione monohydrate]
- stability [1]: high stability
- molecular stability ([1]; during preparation and storage processes): excellent molecular stability
- stability as solid API in stress testing ([1]; high temperature, high humidity and illumination conditions): remain stable

SMILES: [2H]/C(c1nc[nH]c1C(C)(C)C)=c1/[nH]c(=O)/c(=C/c2ccccc2)[nH]c1=O [β-crystalline form, (3Z,6Z)-3-benzylidene-6-[(5-tert-butyl-1H-imidazol-4-yl)deuteromethylene]piperazine-2,5-dione]
- stability under high-temperature condition [2]: not stable enough
- transformation of crystalline form [3, 8]: most of which may transform into δ-crystalline form
- Hygroscopicity [4]: no hygroscopicity

SMILES: [2H]/C(c1nc[nH]c1C(C)(C)C)=c1/[nH]c(=O)/c(=C/c2ccccc2)[nH]c1=O [α-crystalline form, (3Z,6Z)-3-benzylidene-6-[(5-tert-butyl-1H-imidazol-4-yl)deuteromethylene]piperazine-2,5-dione]
- transformation of crystalline form ([3]; under 60% humidity condition): may partially transform into δ-crystalline form
- Hygroscopicity [4]: certain hygroscopicity
- stability / transformation under high-humidity condition [5]: easily transformed into the δ-crystalline form; also recorded: absorbs moisture easily to transform into δ-crystalline form

SMILES: O.[2H]/C(c1nc[nH]c1C(C)(C)C)=c1/[nH]c(=O)/c(=C/c2ccccc2)[nH]c1=O [δ-crystalline form, (3Z,6Z)-3-benzylidene-6-[(5-tert-butyl-1H-imidazol-4-yl)deuteromethylene]piperazine-2,5-dione monohydrate]
- Appearance ([2]; day 0): Yellow powder
- Content (HPLC) (calculated as an anhydride) ([2]; day 0): 99.7%
- Relevant substance (HPLC) Impurity D ([2]; day 0): Impurity D: 0.06%
- Relevant substance (HPLC) Total impurities ([2]; day 0): 0.07%
- Relevant substance (HPLC) Impurity A ([2]; day 0): Impurity A: <LOQ
- Appearance ([2]; day 5): Yellow powder
- Content (HPLC) (calculated as an anhydride) ([2]; day 5): 99.4%
- Relevant substance (HPLC) Impurity D ([2]; day 5): Impurity D: 0.06%
- Relevant substance (HPLC) Total impurities ([2]; day 5): 0.07%
- Relevant substance (HPLC) Impurity A ([2]; day 5): Impurity A: <LOQ
- Appearance ([2]; day 10): Yellow powder
- Content (HPLC) (calculated as an anhydride) ([2]; day 10): 99.8%
- Relevant substance (HPLC) Impurity D ([2]; day 10): Impurity D: 0.06%
- Relevant substance (HPLC) Total impurities ([2]; day 10): 0.07%
- Relevant substance (HPLC) Impurity A ([2]; day 10): Impurity A: <LOQ
- stability under high-temperature condition [2, 9]: remain stable
- stability under high-temperature condition ([2]; monohydrate): very stable; also recorded: relatively stable
- stability in accelerated stability test ([6]; 6 months, monohydrate): very stable; also recorded: excellent stability
- Content (HPLC) (calculated as an anhydride) ([6]; month 0): 99.5%
- Relevant substance (HPLC) Impurity D ([6]; month 0): 0.06%
- Relevant substance (HPLC) Other single impurity ([6]; month 0): Not detected
- Relevant substance (HPLC) Total impurities ([6]; month 0): 0.07%
- Relevant substance (HPLC) Impurity A ([6]; month 0, LOQ (0.035%)): <LOQ
- Content (HPLC) (calculated as an anhydride) ([6]; month 1): 99.6%
- Relevant substance (HPLC) Impurity D ([6]; month 1): 0.06%
- Relevant substance (HPLC) Other single impurity ([6]; month 1): Not detected
- Relevant substance (HPLC) Total impurities ([6]; month 1): 0.08%
- Relevant substance (HPLC) Impurity A ([6]; month 1, LOQ (0.035%)): <LOQ
- Content (HPLC) (calculated as an anhydride) ([6]; month 2): 100.2%
- Relevant substance (HPLC) Impurity D ([6]; month 2): 0.06%
- Relevant substance (HPLC) Other single impurity ([6]; month 2): Not detected
- Relevant substance (HPLC) Total impurities ([6]; month 2): 0.08%
- Relevant substance (HPLC) Impurity A ([6]; month 2, LOQ (0.035%)): <LOQ
- Content (HPLC) (calculated as an anhydride) ([6]; month 3): 99.8%
- Relevant substance (HPLC) Impurity D ([6]; month 3): 0.06%
- Relevant substance (HPLC) Other single impurity ([6]; month 3): Not detected
- Relevant substance (HPLC) Total impurities ([6]; month 3): 0.08%
- Relevant substance (HPLC) Impurity A ([6]; month 3, LOQ (0.035%)): <LOQ
- Content (HPLC) (calculated as an anhydride) ([6]; month 6): 99.7%
- Relevant substance (HPLC) Impurity D ([6]; month 6): 0.06%
- Relevant substance (HPLC) Other single impurity ([6]; month 6): Not detected
- Relevant substance (HPLC) Total impurities ([6]; month 6): 0.08%
- Relevant substance (HPLC) Impurity A ([6]; month 6, LOQ (0.035%)): <LOQ
- Weight gain [4, 10]: 0.20 mg
- Weight gain [4, 11]: 0.24 mg
- Weight gain [4, 12]: 0.20 mg
- weight gain percentage ([4]; bottle opened for 24 hours): less than 0.2%
- Hygroscopicity [4, 10]: none
- Hygroscopicity [4, 11]: none
- Hygroscopicity [4, 12]: none
- Hygroscopicity ([4]; monohydrate): basically not hygroscopic
- Appearance ([5]; day 0): Yellow powder
- Content (HPLC) (calculated as an anhydride) ([5]; day 0): 99.7%
- Relevant substance Impurity D ([5]; day 0): Impurity D: 0.06%
- Relevant substance Total impurities ([5]; day 0): 0.07%
- Relevant substance Impurity A ([5]; day 0): Impurity A: <LOQ
- Appearance ([5]; day 5): Yellow powder
- Content (HPLC) (calculated as an anhydride) ([5]; day 5): 99.5%
- Relevant substance Impurity D ([5]; day 5): Impurity D: 0.06%
- Relevant substance Total impurities ([5]; day 5): 0.07%
- Relevant substance Impurity A ([5]; day 5): Impurity A: <LOQ
- Appearance ([5]; day 10): Yellow powder
- Content (HPLC) (calculated as an anhydride) ([5]; day 10): 99.6%
- Relevant substance Impurity D ([5]; day 10): Impurity D: 0.06%
- Relevant substance Total impurities ([5]; day 10): 0.07%
- Relevant substance Impurity A ([5]; day 10): Impurity A: <LOQ
- stability / transformation under high-humidity condition [5, 9]: remain stable
- stability / transformation under high-humidity condition ([5]; monohydrate): very stable; also recorded: relatively stable
- Appearance ([7]; day 0): Yellow powder
- Content (HPLC) (calculated as an anhydride) ([7]; day 0): 99.7%
- Relevant substance (HPLC) Impurity D ([7]; day 0): Impurity D: 0.06%
- Relevant substance (HPLC) Total impurities ([7]; day 0): 0.07%
- Relevant substance (HPLC) Impurity A ([7]; day 0): Impurity A: <LOQ
- Appearance ([7]; day 5): Yellow powder
- Content (HPLC) (calculated as an anhydride) ([7]; day 5): 100.1%
- Relevant substance (HPLC) Impurity D ([7]; day 5): Impurity D: 0.05%
- Relevant substance (HPLC) Total impurities ([7]; day 5): 0.05%
- Relevant substance (HPLC) Impurity A ([7]; day 5): Impurity A: <LOQ
- Appearance ([7]; day 10): Yellow powder
- Content (HPLC) (calculated as an anhydride) ([7]; day 10): 99.8%
- Relevant substance (HPLC) Impurity D ([7]; day 10): Impurity D: 0.05%
- Relevant substance (HPLC) Total impurities ([7]; day 10): 0.05%
- Relevant substance (HPLC) Impurity A ([7]; day 10): Impurity A: <LOQ
- stability under illumination condition ([7]; listed as (3Z,6Z)-3-benzylidene-6-[(5-tert-butyl-1H-imidazol-4-yl)deuteromethylene]piperaz): remain stable
- stability under illumination condition [7]: very stable; also recorded: relatively stable
